Assays:
Settings in all cases: 48 h
[1] = tested on: NOMO1; assay: AUC of viability dose-response curve (% viability x log10 dose units); higher = less sensitive
Procedure, shortened: (§1)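 Viability of medium-adapted leukemia cells was measured by CellTiter-Glo One luminescence after 48 h at 37°C with library compounds in DMSO. Doses were 11 threefold steps from 47 μM to 0.79 nM, in 1536-well plates at 500 or 1000 cells/well. Signals were normalised per plate to DMSO and cell-free wells and fitted with a four-parameter log-logistic model on log10 dose. Area under the curve was integrated by trapezoidal rule, with curves exceeding full viability scaled and failed quality-control curves removed.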

[2] = tested on: P12-Ichikawa; assay: as above
Procedure, shortened: as §1

[3] = tested on: SEM cells; assay: as above
Procedure, shortened: as §1

[4] = tested on: NOMO1; assay: cell viability relative to DMSO control; higher = less cytotoxic
Procedure, shortened: (§2)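 Leukemia cells (NOMO1 or SEM, 500 cells/well; P12-Ichikawa, 1000 cells/well) were seeded in 5 μl in 1536-well plates after at least four passages of adaptation to each medium. They received library compounds in DMSO by pin dosing, 11 threefold points from 47 μM to 0.79 nM. Luminescence with CellTiter-Glo One was read after 48 h at 37°C. Viability is stated per plate relative to DMSO wells, with cell-free wells as background.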

[5] = tested on: SEM cells; assay: as above
Procedure, shortened: as §2

[6] = tested on: P12-Ichikawa; assay: as above
Procedure, shortened: as §2

CC1(C)S[C@H]2[C@H](NC(=O)[C@@H](N)C3=CC=C(O)C=C3)C(=O)[N@]2[C@H]1C(O)=O
AUC of viability dose-response curve
Settings	[1]	[2]	[3]
HPLM + 10% dialyzed FBS	383	394	456
RPMI 5 mM glucose + 10% FBS	394	394	441
RPMI 5 mM glucose + 10% dialyzed FBS	393	383	461

CCCCCCCCCCCCCCCC(=O)OC[C@@H](NC(=O)C(Cl)Cl)[C@H](O)c1ccc([N+](=O)[O-])cc1
cell viability [%]
Settings	[4]	[5]
HPLM + 10% dialyzed FBS, 0.000781 µM	105	90.3
HPLM + 10% dialyzed FBS, 0.00234 µM	123	113
HPLM + 10% dialyzed FBS, 0.00702 µM	126	114
HPLM + 10% dialyzed FBS, 0.0211 µM	143	116
HPLM + 10% dialyzed FBS, 0.0632 µM	118	121
HPLM + 10% dialyzed FBS, 0.19 µM	141	121
HPLM + 10% dialyzed FBS, 0.569 µM	140	118
HPLM + 10% dialyzed FBS, 1.71 µM	144	123
HPLM + 10% dialyzed FBS, 5.12 µM	141	131
HPLM + 10% dialyzed FBS, 15.4 µM	144	116
HPLM + 10% dialyzed FBS, 46.1 µM	142	119
RPMI 5 mM glucose + 10% FBS, 0.000781 µM	–	120
RPMI 5 mM glucose + 10% FBS, 0.00234 µM	–	117
RPMI 5 mM glucose + 10% FBS, 0.00702 µM	–	132
RPMI 5 mM glucose + 10% FBS, 0.0211 µM	–	122
RPMI 5 mM glucose + 10% FBS, 0.0632 µM	–	136
RPMI 5 mM glucose + 10% FBS, 0.19 µM	–	138
RPMI 5 mM glucose + 10% FBS, 0.569 µM	–	132
RPMI 5 mM glucose + 10% FBS, 1.71 µM	–	124
RPMI 5 mM glucose + 10% FBS, 5.12 µM	–	128
RPMI 5 mM glucose + 10% FBS, 15.4 µM	–	133
RPMI 5 mM glucose + 10% FBS, 46.1 µM	–	129

AUC of viability dose-response curve
Settings	[1]	[2]	[3]
HPLM + 10% dialyzed FBS	450	470	464
RPMI 5 mM glucose + 10% FBS	461	429	468
RPMI 5 mM glucose + 10% dialyzed FBS	445	461	455

Cn1c(CCCC(=O)O)nc2cc(N(CCCl)CCCl)ccc21
AUC of viability dose-response curve
Settings	[1]	[2]	[3]
HPLM + 10% dialyzed FBS	452	438	456
RPMI 5 mM glucose + 10% FBS	441	457	414
RPMI 5 mM glucose + 10% dialyzed FBS	453	451	447

CCN1CCN(Cc2ccc(-c3cc4c(N[C@H](C)c5ccccc5)ncnc4[nH]3)cc2)CC1
[5], HPLM + 10% dialyzed FBS
Settings	cell viability [%]
0.000781 µM	130
0.00234 µM	124
0.00702 µM	125
0.0211 µM	132
0.0632 µM	116
0.19 µM	116
0.569 µM	109
1.71 µM	98.5
5.12 µM	74.7
15.4 µM	51.1
46.1 µM	8.14

AUC of viability dose-response curve
Settings	[1]	[2]	[3]
HPLM + 10% dialyzed FBS	439	448	384
RPMI 5 mM glucose + 10% FBS	460	463	375
RPMI 5 mM glucose + 10% dialyzed FBS	457	461	388

CCC(c1ccc(O)cc1)C(CC)c1ccc(O)cc1 (stereo not drawn)
AUC of viability dose-response curve
Settings	[1]	[2]	[3]
HPLM + 10% dialyzed FBS	428	452	459
RPMI 5 mM glucose + 10% FBS	448	464	457
RPMI 5 mM glucose + 10% dialyzed FBS	463	466	466

Cc1ccccc1C(C(=O)NC1CCCCC1)N(C(=O)CNc1ccc(C#N)cc1)c1cccc(F)c1 (stereo not drawn)
cell viability [%]
Settings	[4]	[5]	[6]
HPLM + 10% dialyzed FBS, 0.000781 µM	103	88.7	111
HPLM + 10% dialyzed FBS, 0.00234 µM	111	116	113
HPLM + 10% dialyzed FBS, 0.00702 µM	115	119	107
HPLM + 10% dialyzed FBS, 0.0211 µM	106	121	105
HPLM + 10% dialyzed FBS, 0.0632 µM	98.3	124	114
HPLM + 10% dialyzed FBS, 0.19 µM	111	118	103
HPLM + 10% dialyzed FBS, 0.569 µM	112	118	106
HPLM + 10% dialyzed FBS, 1.71 µM	99.4	105	104
HPLM + 10% dialyzed FBS, 5.12 µM	114	118	102
HPLM + 10% dialyzed FBS, 15.4 µM	84.2	103	104
HPLM + 10% dialyzed FBS, 46.1 µM	82.8	111	99.2
RPMI 5 mM glucose + 10% FBS, 0.000781 µM	77.2	113	73.9
RPMI 5 mM glucose + 10% FBS, 0.00234 µM	88.5	118	104
RPMI 5 mM glucose + 10% FBS, 0.00702 µM	94.5	105	110
RPMI 5 mM glucose + 10% FBS, 0.0211 µM	87.7	106	112
RPMI 5 mM glucose + 10% FBS, 0.0632 µM	103	105	112
RPMI 5 mM glucose + 10% FBS, 0.19 µM	94	119	102
RPMI 5 mM glucose + 10% FBS, 0.569 µM	93.7	103	102
RPMI 5 mM glucose + 10% FBS, 1.71 µM	100	96.9	102
RPMI 5 mM glucose + 10% FBS, 5.12 µM	89.6	95	99
RPMI 5 mM glucose + 10% FBS, 15.4 µM	90.1	93.4	95.6
RPMI 5 mM glucose + 10% FBS, 46.1 µM	87.3	106	94.6
RPMI 5 mM glucose + 10% dialyzed FBS, 0.000781 µM	71.9	85	64.4
RPMI 5 mM glucose + 10% dialyzed FBS, 0.00234 µM	110	107	110
RPMI 5 mM glucose + 10% dialyzed FBS, 0.00702 µM	140	119	110
RPMI 5 mM glucose + 10% dialyzed FBS, 0.0211 µM	142	95.4	112
RPMI 5 mM glucose + 10% dialyzed FBS, 0.0632 µM	98.5	97	104
RPMI 5 mM glucose + 10% dialyzed FBS, 0.19 µM	84.7	103	92.7
RPMI 5 mM glucose + 10% dialyzed FBS, 0.569 µM	88.2	91.6	103
RPMI 5 mM glucose + 10% dialyzed FBS, 1.71 µM	70.1	108	92.5
RPMI 5 mM glucose + 10% dialyzed FBS, 5.12 µM	80.3	97.6	91.3
RPMI 5 mM glucose + 10% dialyzed FBS, 15.4 µM	97	101	98.8
RPMI 5 mM glucose + 10% dialyzed FBS, 46.1 µM	76.9	89.5	98.6

AUC of viability dose-response curve
Settings	HPLM + 10% dialyzed FBS	RPMI 5 mM glucose + 10% FBS	RPMI 5 mM glucose + 10% dialyzed FBS
[2]	453	476	467
[3]	471	454	470

C/C=C(/C(=C/C)c1ccc(O)cc1)c1ccc(O)cc1
AUC of viability dose-response curve
Settings	[1]	[2]	[3]
HPLM + 10% dialyzed FBS	464	469	464
RPMI 5 mM glucose + 10% FBS	431	465	467
RPMI 5 mM glucose + 10% dialyzed FBS	457	465	465
